In EP4725941A1, “ARYLAMIDE DERIVATIVE HAVING ANTITUMOR ACTIVITY” (priority 2020, dated 2021) one finds IC50 and microsomal CLint data, which are given here for 17 compounds.

Each structure is given as a SMILES string. Read-outs that look alike come from different tables or passages of the source.

Data set [1] concerns the target T1, BRAF (Homo sapiens, UniProt P15056).
T1 construct: purchased Eurofins Genomics KK; (BRAF); Thermo Fisher Scientific Inc. (MEK1)
Description: BRAF-inhibiting activity, time-resolved fluorescence-fluorescence resonance energy transfer assay. The data set is classed as biochemical. The protocol:
The BRAF-inhibiting activity of the compounds listed in Table 3 below was evaluated by the time-resolved fluorescence-fluorescence resonance energy transfer assay as described below.

Data set [2] relates to A549. Description: Cell proliferation-inhibiting activity (ATP in viable cells, CellTiter-Glo), A549. The data set is classed as cell-based, human. As to conditions: A549, 96 h, read-out: A549 IC50. A general note: In ATP-based viability assays light output follows the ATP content of the culture.
Data set [3] is described as follows: Human liver microsome stability. As to conditions: human liver microsomes, pH 7.4. Format: in vitro ADME.
Data set [4] has as its system Calu-6. Description: Cell proliferation-inhibiting activity (ATP in viable cells, CellTiter-Glo), Calu-6. Format: cell-based, human. Particulars: Calu-6, 96 h, read-out: Calu-6 IC50.
Data set [5] concerns the target T2, MEK1 (Homo sapiens, UniProt Q02750).
T2 construct: purchased Thermo Fisher Scientific Inc. (MEK1, CRAF); Carna Biosciences, Inc. (ERK2)
The data set is described as follows: MEK1-inhibiting activity, fluorescent polarization method (CRAF/MEK1/ERK2 cascade, IMAP). The data set is classed as biochemical. Particulars: Table 3; read-out: MEK1 IC50. The protocol:
The MEK1-inhibiting activity of the compounds listed in Table 3 below were evaluated by the fluorescent polarization method as described below.

In data set [6] the test system is NCI-H2122. The data set is described as follows: Cell proliferation-inhibiting activity (ATP in viable cells, CellTiter-Glo), NCI-H2122. The data set is classed as cell-based, human. Particulars: NCI-H2122, 96 h, read-out: NCI-H2122 IC50.
[7] abbreviates: human lung cancer cells, 4 days.

T2 sequence (Q02750 whole entry): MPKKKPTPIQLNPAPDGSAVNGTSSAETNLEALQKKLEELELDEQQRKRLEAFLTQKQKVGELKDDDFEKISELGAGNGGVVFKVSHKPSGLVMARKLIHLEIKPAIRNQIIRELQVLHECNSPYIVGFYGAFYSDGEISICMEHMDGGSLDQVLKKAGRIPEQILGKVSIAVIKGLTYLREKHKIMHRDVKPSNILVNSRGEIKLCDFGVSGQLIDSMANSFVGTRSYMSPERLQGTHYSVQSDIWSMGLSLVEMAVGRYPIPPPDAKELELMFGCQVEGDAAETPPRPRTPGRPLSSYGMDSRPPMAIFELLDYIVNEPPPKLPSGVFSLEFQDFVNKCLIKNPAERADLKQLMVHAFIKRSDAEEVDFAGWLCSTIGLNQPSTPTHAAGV
T1 sequence (P15056 417-766 limits assumed): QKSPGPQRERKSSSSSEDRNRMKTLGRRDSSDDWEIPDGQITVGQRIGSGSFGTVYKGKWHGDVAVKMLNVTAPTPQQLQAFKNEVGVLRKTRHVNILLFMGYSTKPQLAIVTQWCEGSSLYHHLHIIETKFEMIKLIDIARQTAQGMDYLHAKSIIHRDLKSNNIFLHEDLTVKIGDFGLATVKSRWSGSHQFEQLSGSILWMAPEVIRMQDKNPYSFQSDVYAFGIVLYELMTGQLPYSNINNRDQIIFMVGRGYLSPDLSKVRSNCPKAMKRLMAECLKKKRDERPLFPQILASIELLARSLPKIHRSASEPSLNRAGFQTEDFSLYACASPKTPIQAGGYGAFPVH

Take `O=C(NC1CC1)c1cc(Cc2ccnc(NS(=O)(=O)NCCF)c2F)c(F)c(F)c1Nc1ccc(I)cc1F` [Compound A-6, N-cyclopropyl-3,4-difluoro-5-[[3-fluoro-2-(2-fluoroethylsulfamoylamino)pyridin-4-yl]methyl]-2-(2-fluoro-4-iodoanilino)benzamide]: the IC50 – broadly, the concentration at which inhibition is half-maximal – in data set [1] (read-out: BRAF IC50; Table 3) was determined as 10 nM; in data set [2] (setting [7]) it was 17 nM; in data set [4] (setting [7]), 19 nM; in data set [5], 12 nM; in data set [6] (setting [7]), 3 nM. In addition, in data set [3], the intrinsic clearance (microsomal CLint) (usually a measure of how fast metabolising enzymes remove a compound, apart from limits set by blood flow) at 0.99 µM stood at 20 µL/min/mg.

For the compound `CNC(=O)c1cc(Cc2ccnc(NS(=O)(=O)NC)c2F)c(F)c(F)c1Nc1ccc(I)cc1F` [Compound A-7, 3,4-Difluoro-2-(2-fluoro-4-iodoanilino)-5-[[3-fluoro-2-(methylsulfamoylamino)pyridin-4-yl]methyl]-N-methylbenzamide], the IC50 in data set [1] (read-out: BRAF IC50; Table 3) came to 5 nM; in data set [2] (setting [7]) it was 2 nM; in data set [4] (setting [7]), 18 nM; in data set [5], 18 nM; in data set [6] (setting [7]), 1 nM. In addition, in data set [3], the microsomal CLint at 0.99 µM turned out to be 28 µL/min/mg.

`CNS(=O)(=O)Nc1nccc(Cc2cc(C(=O)NOC(C)(C)C)c(Nc3ccc(I)cc3F)c(F)c2F)c1F` [Compound A-8, 3,4-difluoro-2-(2-fluoro-4-iodoanilino)-5-[[3-fluoro-2-(methylsulfamoylamino)pyridin-4-yl]methyl]-N-[(2-methylpropan-2-yl)oxy]benz amide]: the IC50 was 4 nM in data set [1] (read-out: BRAF IC50; Table 3); 0.4 nM in data set [2] (setting [7]); 2 nM in data set [4] (setting [7]); 3 nM in data set [5]; 0.1 nM in data set [6] (setting [7]). The compound also came in with a microsomal CLint at 0.99 µM in data set [3] of 33 µL/min/mg.

Take `COCCNS(=O)(=O)Nc1nccc(Cc2cc(C(=O)NOC(C)(C)C)c(Nc3ccc(I)cc3F)c(F)c2F)c1F` [Compound A-9, 3,4-Difluoro-2-(2-fluoro-4-iodoanilino)-5-[[3-fluoro-2-(2-methoxyethylsulfamoylamino)pyridin-4-yl]methyl]-N-[(2-methylpropan-2-yl)oxy]be nzamide]: the IC50 is 4 nM in data set [1] (read-out: BRAF IC50; Table 3); 2 nM in data set [2] (setting [7]); 7 nM in data set [4] (setting [7]); 4 nM in data set [5]; 0.4 nM in data set [6] (setting [7]). The compound further came in with a microsomal CLint at 0.99 µM in data set [3] of 56 µL/min/mg.

With `CC(C)ONC(=O)c1cc(Cc2ccnc(NS(=O)(=O)NC3(C)CCC3)c2F)c(F)c(F)c1Nc1ccc(I)cc1F` [Compound A-12, 3,4-Difluoro-2-(2-fluoro-4-iodoanilino)-5-[[3-fluoro-2-[(1-methylcyclobutyl)sulfamoylamino]pyridin-4-yl]methyl]-N-propan-2-yloxybenzamide], the IC50 worked out at 6 nM in data set [1] (read-out: BRAF IC50; Table 3); 6 nM in data set [2] (setting [7]); 18 nM in data set [4] (setting [7]); 13 nM in data set [5]; 5 nM in data set [6] (setting [7]). Also, the microsomal CLint at 0.99 µM in data set [3] was 121 µL/min/mg.

As to `CNS(=O)(=O)Nc1nccc(Cc2cc(C(=O)NOC)c(Nc3ccc(I)cc3F)c(F)c2F)c1F` [Compound A-13, 3,4-difluoro-2-(2-fluoro-4-iodoanilino)-5-[[3-fluoro-2-(methylsulfamoylamino)pyridin-4-yl]methyl]-N-methoxybenzamide], the IC50 worked out at 3 nM in data set [1] (read-out: BRAF IC50; Table 3); 1 nM in data set [2] (setting [7]); 3 nM in data set [4] (setting [7]); 1 nM in data set [5]; 0.3 nM in data set [6] (setting [7]). The compound further yielded a microsomal CLint at 0.99 µM in data set [3] of 31 µL/min/mg.

On to `COCCNS(=O)(=O)Nc1nccc(Cc2cc(C(=O)NOC)c(Nc3ccc(I)cc3F)c(F)c2F)c1F` [Compound A-14, 3,4-Difluoro-2-(2-fluoro-4-iodoanilino)-5-[[3-fluoro-2-(2-methoxyethylsulfamoylamino)pyridin-4-yl]methyl]-N-methoxybenzamide], for which the IC50 in data set [1] (read-out: BRAF IC50; Table 3) is 3 nM; in data set [2] (setting [7]), 11 nM; in data set [4] (setting [7]), 27 nM; in data set [5], 2 nM; in data set [6] (setting [7]), 1 nM. The microsomal CLint at 0.99 µM in data set [3] was found to be 39 µL/min/mg.

Take `CONC(=O)c1cc(Cc2ccnc(NS(=O)(=O)NC3(C)CCC3)c2F)c(F)c(F)c1Nc1ccc(I)cc1F` [Compound A-15, 3,4-difluoro-2-(2-fluoro-4-iodoanilino)-5-[[3-fluoro-2-[(1-methylcyclobutyl)sulfamoylamino]pyridin-4-yl]methyl]-N-methoxybenzamide]: the half-inhibitory concentration (IC50) in data set [1] (read-out: BRAF IC50; Table 3) came to 4 nM; in data set [2] (setting [7]), 2 nM; in data set [4] (setting [7]), 5 nM; in data set [5], 8 nM; in data set [6] (setting [7]) it was 1 nM. The microsomal CLint at 0.99 µM in data set [3] is 57 µL/min/mg.

With `CNS(=O)(=O)Nc1nccc(Cc2cc(C(N)=O)c(Nc3ccc(SC)cc3F)c(F)c2F)c1F` [Compound A-18, 3,4-difluoro-5-[[3-fluoro-2-(methylsulfamoylamino)pyridin-4-yl]methyl]-2-(2-fluoro-4-methylsulfanylanilino)benzamide], the IC50 in data set [1] (Table 3; read-out: BRAF IC50) turned out to be 4 nM; in data set [2] (Homo sapiens), 5 nM; in data set [4] (Homo sapiens), 7 nM; in data set [5], 8 nM; in data set [6] (Homo sapiens), 2 nM. Further, the microsomal CLint at 0.99 µM in data set [3] was 53 µL/min/mg.

Take `COCC(C)(C)NS(=O)(=O)Nc1nccc(Cc2cc(C(N)=O)c(Nc3ccc(I)cc3F)c(F)c2F)c1F` [Compound A-24, 3,4-Difluoro-2-(2-fluoro-4-iodoanilino)-5-[[3-fluoro-2-[(1-methoxy-2-methylpropan-2-yl)sulfamoylamino]pyridin-4-yl]methyl]benzamide]: the IC50 in data set [1] (read-out: BRAF IC50; Table 3) turned out to be 3 nM; in data set [2] (setting [7]), 11 nM; in data set [4] (setting [7]) it was 51 nM; in data set [5], 129 nM; in data set [6] (setting [7]) it was 4 nM. Besides, the intrinsic metabolic clearance (microsomal CLint) at 0.99 µM in data set [3] turned out to be 48 µL/min/mg.

In the case of `CNS(=O)(=O)Nc1nccc(Cc2cc(C(N)=O)c(Nc3ccc(I)cc3F)c(F)c2F)c1F` [Compound A-25, 3,4-difluoro-2-(2-fluoro-4-iodoanilino)-5-[[3-fluoro-2-(methylsulfamoylamino)pyridin-4-yl]methyl]benzamide], the IC50 in data set [1] (read-out: BRAF IC50; Table 3) came to 2 nM; in data set [2] (setting [7]) it was 0.5 nM; in data set [4] (setting [7]), 2 nM; in data set [5], 5 nM; in data set [6] (setting [7]), 0.2 nM. This compound also displayed a microsomal CLint at 0.99 µM in data set [3] of 7 µL/min/mg.

As to `NC(=O)c1cc(Cc2ccnc(NS(=O)(=O)NC3CC3)c2F)c(F)c(F)c1Nc1ccc(I)cc1F` [Compound A-30, 5-[[2-(cyclopropylsulfamoylamino)-3-fluoropyridin-4-yl]methyl]-3,4-difluoro-2-(2-fluoro-4-iodoanilino)benzamide], the IC50 in data set [1] (read-out: BRAF IC50; Table 3) was determined as 8 nM; in data set [2] (setting [7]), 3 nM; in data set [4] (setting [7]) it was 8 nM; in data set [5], 9 nM; in data set [6] (setting [7]), 1 nM. The microsomal CLint at 0.99 µM in data set [3] was found to be 10 µL/min/mg.

Consider `CC(C)NS(=O)(=O)Nc1nccc(Cc2cc(C(N)=O)c(Nc3ccc(I)cc3F)c(F)c2F)c1F` [Compound A-31, 3,4-difluoro-2-(2-fluoro-4-iodoanilino)-5-[[3-fluoro-2-(propan-2-ylsulfamoylamino)pyridin-4-yl]methyl]benzamide], for which the IC50 is 6 nM in data set [1] (read-out: BRAF IC50; Table 3); 20 nM in data set [2] (setting [7]); 31 nM in data set [4] (setting [7]); 49 nM in data set [5]; 7 nM in data set [6] (setting [7]). In data set [3], this compound gave a microsomal CLint at 0.99 µM of 9 µL/min/mg.

As to `COCCNS(=O)(=O)Nc1nccc(Cc2cc(C(N)=O)c(Nc3ccc(I)cc3F)c(F)c2F)c1F` [Compound A-33, 3,4-difluoro-2-(2-fluoro-4-iodoanilino)-5-[[3-fluoro-2-(2-methoxyethylsulfamoylamino)pyridin-4-yl]methyl]benzamide], the IC50 in data set [1] (read-out: BRAF IC50; Table 3) is 2 nM; in data set [2] (setting [7]), 27 nM; in data set [4] (setting [7]), 68 nM; in data set [5] it was 10 nM; in data set [6] (setting [7]) it was 8 nM. Also, the microsomal CLint at 0.99 µM in data set [3] is 6 µL/min/mg.

On to `CC(C)CNS(=O)(=O)Nc1nccc(Cc2cc(C(N)=O)c(Nc3ccc(I)cc3F)c(F)c2F)c1F` [Compound A-34, 3,4-difluoro-2-(2-fluoro-4-iodoanilino)-5-[[3-fluoro-2-(2-methylpropylsulfamoylamino)pyridin-4-yl]methyl]benzamide], for which the IC50 was 3 nM in data set [1] (read-out: BRAF IC50; Table 3); 27 nM in data set [2] (setting [7]); 79 nM in data set [4] (setting [7]); 81 nM in data set [5]; 12 nM in data set [6] (setting [7]). The compound also showed a microsomal CLint at 0.99 µM in data set [3] of 17 µL/min/mg.

Consider `CC1(NS(=O)(=O)Nc2nccc(Cc3cc(C(N)=O)c(Nc4ccc(I)cc4F)c(F)c3F)c2F)CCC1` [Compound A-35, 3,4-difluoro-2-(2-fluoro-4-iodoanilino)-5-[[3-fluoro-2-[(1-methylcyclobutyl)sulfamoylamino]pyridin-4-yl]methyl]benzamide], for which the IC50 in data set [1] (read-out: BRAF IC50; Table 3) amounted to 28 nM; in data set [2] (setting [7]), 21 nM; in data set [4] (setting [7]) it was 34 nM; in data set [5], 66 nM; in data set [6] (setting [7]), 4 nM. Moreover, the microsomal CLint at 0.99 µM in data set [3] was found to be 15 µL/min/mg.

`NC(=O)c1cc(Cc2ccnc(NS(=O)(=O)NCC3CC3)c2F)c(F)c(F)c1Nc1ccc(I)cc1F` [Compound A-36]: the IC50 was determined as 5 nM in data set [1] (read-out: BRAF IC50; Table 3); 26 nM in data set [2] (setting [7]); 61 nM in data set [4] (setting [7]); 74 nM in data set [5]; 17 nM in data set [6] (setting [7]). The microsomal CLint at 0.99 µM in data set [3] is 18 µL/min/mg.
